Results published in patent publication US20230285435A1, “COMPOSITIONS AND METHODS FOR TREATING VIRAL INFECTIONS” (priority 2020, published 2023).
Structures can show the parent of a compound that is named as a salt.

Tests used:
[1] = test system: SARS-CoV2 in Calu-3 cells; format: cell-based
[2] = test system: SARS-CoV2 infected Vero-E6 cells and human lung epithelial cells (Calu-3); format: cell-based; design: inhibiting cytopathic effect (% of cells): dose or concentration left out as unconfirmed; details: for efficacy of the agent alone, in words: single agent; for synergy with remdesivir (BLISS independence model, synergyfinder): in combination with remdesivir, synergy score >10 signifies synergy

Molecule | synergy in combination with remdesivir [1] | other results
COC(=O)N[C@H](C(=O)N1CC2(CC2)C[C@H]1c1ncc(-c2ccc3c(c2)C(F)(F)c2cc(-c4ccc5nc([C@@H]6[C@H]7CC[C@H](C7)N6C(=O)[C@@H](NC(=O)OC)C(C)C)[nH]c5c4)ccc2-3)[nH]1)C(C)C [Ledipasvir] | synergy | –
COC(=O)N[C@H](C(=O)N1CCC[C@H]1C(=O)Nc1ccc([C@@H]2CC[C@@H](c3ccc(NC(=O)[C@@H]4CCCN4C(=O)[C@@H](NC(=O)OC)C(C)C)cc3)N2c2ccc(C(C)(C)C)cc2)cc1)C(C)C [Ombitasvir] | synergy | –
CCC(CC)COC(=O)[C@H](C)N[P@](=O)(OC[C@H]1O[C@@](C#N)(c2ccc3c(N)ncnn23)[C@H](O)[C@@H]1O)Oc1ccccc1 [remdesivir] | – | preventing a virus-caused pathology (% of cells) ([2]; 300 nM remdesivir alone): 7%; efficacy of the agent alone, in words [2]: only active at high uM concentrations
COC[C@H]1C[C@@H](c2nc(-c3ccc4c(c3)COc3cc5c(ccc6nc([C@@H]7CC[C@H](C)N7C(=O)[C@@H](NC(=O)OC)C(C)C)[nH]c65)cc3-4)c[nH]2)N(C(=O)[C@H](NC(=O)OC)c2ccccc2)C1 [Velpatasvir] | – | synergy with remdesivir (BLISS independence model, synergyfinder) [2]: strongest; efficacy of the agent alone, in words [2]: modest efficacy; inhibiting cytopathic effect (% of cells) ([2]; velpatasvir alone (so in the source)): 16%
Elbasvir | – | synergy with remdesivir (BLISS independence model, synergyfinder) [2]: synergistic
COC(=O)N[C@H](C(=O)N1CCC[C@H]1c1ncc(-c2ccc(-c3ccc(-c4cnc([C@@H]5CCCN5C(=O)[C@@H](NC(=O)OC)C(C)C)[nH]4)cc3)cc2)[nH]1)C(C)C [Daclatasvir dihydrochloride] | synergy | –
COC(=O)N[C@H](C(=O)N1CCC[C@H]1c1nc2cc([C@H]3CC[C@H](c4cc5nc([C@@H]6CCCN6C(=O)[C@@H](NC(=O)OC)[C@@H](C)OC)[nH]c5cc4F)N3c3cc(F)c(N4CCC(c5ccc(F)cc5)CC4)c(F)c3)c(F)cc2[nH]1)[C@@H](C)OC [Pibrentasvir] | synergy | –
COc1c(C)c2c(c(O)c1C/C=C(\C)CCC(=O)O)C(=O)OC2 [Mycophenolic acid] | synergy | –
COC(=O)N[C@H](C(=O)N1CC2(CC2)C[C@H]1c1ncc(-c2ccc3c(c2)C(F)(F)c2cc(-c4ccc5nc(C6[C@H]7CC[C@H](C7)N6C(=O)[C@@H](NC(=O)OC)C(C)C)[nH]c5c4)ccc2-3)[nH]1)C(C)C (stereo partly drawn) [Ledipasvir acetone] | synergy | –
